Data reported in paper PMC7766327, “Inhibition of Pneumolysin Cytotoxicity by Hydrolysable Tannins” (Antibiotics, 2020).
Like-named read-outs stand apart in the source and are kept apart here.

Tests used:
pneumolysin (Ply) [1] = target: T1, pneumolysin (Ply) (Streptococcus pneumoniae serotype 2, UniProt Q04IN8); assay: cell-based; assay type: cell-based
T1 construct: made in house; host or cells: E. coli BL21(DE3)
Method: Native human erythrocytes were taken into EDTA tubes. The erythrocytes were washed three times with PBS (0.15 M NaCl, 2.7 mM KCl, 8.1 mM Na2HPO4 and 1.5 mM KH2PO4) by centrifugation at 700× g for 10 min. The purified erythrocytes were stored at +4 °C. Erythrocytes (1% v/v) in PBS were mixed with 1 nM Ply and dilution series of polyphenol inhibitors in 96-well microtiter plates. The reaction was incubated for 30 min at 37 °C. The plates were centrifuged, and the supernatant was pipetted into flat-bottomed microtiter plates to measure the absorbance at 570 nm (VICTOR X4, PerkinElmer, Turku, Finland) of the released hemoglobin from lysed erythrocytes. The absorbances of triplicate measurements are presented as a function of inhibitor concentration. The IC50 values were calculated with Origin data analysis software (2016, OriginLab Corporation, Northampton, MA, USA).

pneumolysin (Ply) [2] = target: T1, pneumolysin (Ply); assay: Precipitation assay of pneumolysin-tannin interaction; assay type: binding; conditions: for Minimum Precipitating Concentration: 10 μM Ply, Na-acetate buffer pH 5.0, 25 °C, 30 min, absorbance 414 nm; for Precipitation Relative Power: fold compared to vescalagin (=1); for Fold higher precipitating concentration compared to hemolysis IC50: minimum precipitating concentration vs hemolysis IC50
Method: The precipitation assay with tannins was done as described previously with bovine serum albumin [22]. First, 10 μM of Ply and dilution series of polyphenols (5–1000 µM) were incubated in a Na-acetate buffer (200 mM NaCl and 50 mM CH3COONa; pH 5.0) at 25 °C for 30 min with shaking. The reactions were carried out in Multiskan Ascent plate reader (Labsystems, Vantaa, Finland) and the precipitation was measured at 414 nm. The minimum concentration precipitating Ply was calculated with Origin data analysis software (2016, OriginLab Corporation, Northampton, MA, USA).

[3] = IC50 (screening with hemolysis assays), estimated from the inhibition curves, two-fold dilutions of tannins
[4] = read-out: IC50 (screening with hemolysis assays), estimated from the inhibition curves, two-fold dilutions of tannins
[5] = Hemolysis Inhibition IC50, 1 nM Ply, 1% human erythrocytes, 30 min 37 °C, logistic fit
[6] = classification by IC50 from two-fold dilutions

T1 sequence (Q04IN8 whole entry): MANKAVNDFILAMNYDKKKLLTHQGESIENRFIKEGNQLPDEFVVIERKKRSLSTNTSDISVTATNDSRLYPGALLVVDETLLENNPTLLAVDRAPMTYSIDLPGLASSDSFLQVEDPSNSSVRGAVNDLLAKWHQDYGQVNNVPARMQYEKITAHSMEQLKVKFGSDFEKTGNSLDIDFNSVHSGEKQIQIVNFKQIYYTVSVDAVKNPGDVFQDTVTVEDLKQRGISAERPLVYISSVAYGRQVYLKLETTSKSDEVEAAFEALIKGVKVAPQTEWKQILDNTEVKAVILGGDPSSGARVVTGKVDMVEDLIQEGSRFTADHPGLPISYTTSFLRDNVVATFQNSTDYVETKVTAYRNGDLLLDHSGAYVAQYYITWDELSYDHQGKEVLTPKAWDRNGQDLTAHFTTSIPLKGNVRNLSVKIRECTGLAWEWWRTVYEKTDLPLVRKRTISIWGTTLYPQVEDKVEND

With O=C(O[C@H]1[C@@H]2OC(=O)c3cc(O)c(O)c(O)c3-c3c(cc(O)c(O)c3O)C(=O)OC[C@H]2OC(O)[C@@H]1OC(=O)c1cc(O)c(O)c(O)c1)c1cc(O)c(O)c(O)c1 (stereo partly shown) [Tellimagrandin I] the IC50 (pneumolysin (Ply) [1]; [3]) was 60 nM.
In the case of O=C1OC[C@H]2OC(=O)c3cc(O)c(O)c(O)c3-c3c(O)c(O)c(O)c4c3C(=O)O[C@H]([C@H]3OC(=O)c5c-4c(O)c(O)c(O)c5[C@H]3O)[C@@H]2OC(=O)c2cc(O)c(O)c(O)c2-c2c1cc(O)c(O)c2O [Castalagin], the IC50 (pneumolysin (Ply) [1]; [3]) is reported as 80 nM.
For O=C(OC1O[C@@H]2COC(=O)c3cc(O)c(O)c(O)c3-c3c(cc(O)c(O)c3O)C(=O)O[C@H]2[C@H](OC(=O)c2cc(O)c(O)c(O)c2)[C@H]1OC(=O)c1cc(O)c(O)c(O)c1)c1cc(O)c(O)c(O)c1 (stereo partly shown) [Tellimagrandin II], the “Inhibitor class in hemolysis inhibition assay” value (“Inhibitor class” for short) (pneumolysin (Ply) [1]) was “potent (key: negative or weak inhibitors (IC50 ≥ 100 nM); moderate inhibitors (IC50 40–90 nM); potent inhibitors (IC50 10–30 nM))” and the IC50 (pneumolysin (Ply) [1]; [3]) was 10 nM.
Work on O=C(O[C@@H]1O[C@@H]2COC(=O)c3cc(O)c(O)c(O)c3-c3c(cc(O)c(O)c3O)C(=O)O[C@H]2[C@H](O)[C@H]1OC(=O)c1cc(O)c(O)c(O)c1)c1cc(O)c(O)c(O)c1 [1,2,-di-O-galloyl-4,6-HHDP-β-D-glucose] yielded an IC50 (pneumolysin (Ply) [1]; [3]) of 70 nM.
With O=C(O[C@@H]1O[C@H](CO)[C@@H](O)[C@H](O)[C@H]1O)c1cc(O)c(O)c(O)c1 [1-O-galloyl-β-D-glucose] the IC50 (pneumolysin (Ply) [1]; [3]) was over 100 nM.
O=C(O)C[C@@H]1C(=O)O[C@H]2[C@@H]3OC(=O)c4cc(O)c(O)c(O)c4-c4c(cc(O)c(O)c4O)C(=O)OC[C@H]2O[C@@H](OC(=O)c2cc(O)c(O)c(O)c2)[C@@H]3OC(=O)c2cc(O)c(O)c3c2[C@H]1[C@H](O)C(=O)O3 [Chebulagic acid] gave an IC50 (pneumolysin (Ply) [1]; [3]) of over 100 nM.
O=C1O[C@H]2[C@@H]3OC(=O)c4cc(O)c(O)c(O)c4-c4c(cc(O)c(O)c4O)C(=O)OC[C@H]2O[C@@H](OC(=O)c2cc(O)c(O)c(O)c2)[C@@H]3OC(=O)c2cc(O)c(O)c3c2[C@@H]2C1=CC(=O)[C@](O)(O3)C2(O)O [Geraniin] was tested, and the IC50 (pneumolysin (Ply) [1]; [3]) was 100 nM.
Compound O=C(OC1OC2COC(=O)c3cc(O)c(O)c(O)c3-c3c(cc(O)c(O)c3O)C(=O)OC2C2OC(=O)c3cc(O)c(O)c(O)c3-c3c(cc(O)c(O)c3O)C(=O)OC12)c1cc(O)c(O)c(Oc2c(O)c(O)c(O)c3c2C(=O)OC2C(COC(=O)c4cc(O)c(O)c(O)c4-3)OC(OC(=O)c3cc(O)c(O)c(O)c3)C3OC(=O)c4cc(O)c(O)c(O)c4-c4c(cc(O)c(O)c4O)C(=O)OC23)c1 (stereo not shown) [Sanguiin H-6] has an IC50 (pneumolysin (Ply) [1]; [4]) of 20 nM.
For O=C(O[C@@H]1O[C@@H]2COC(=O)c3cc(O)c(O)c(O)c3-c3c(cc(O)c(O)c3O)C(=O)O[C@H]2[C@H](OC(=O)c2cc(O)c(O)c(O)c2)[C@H]1OC(=O)c1cc(O)c(O)c(O)c1)c1cc(O)c(O)c(Oc2c(C(=O)O[C@H]3O[C@@H]4COC(=O)c5cc(O)c(O)c(O)c5-c5c(cc(O)c(O)c5O)C(=O)O[C@H]4[C@@H]4OC(=O)c5cc(O)c(O)c(O)c5-c5c(cc(O)c(O)c5O)C(=O)O[C@@H]34)cc(O)c(O)c2O)c1 [Gemin A], the “Hemolysis Inhibition Inhibitory Power” value (pneumolysin (Ply) [1]) was 5.9, the IC50 (pneumolysin (Ply) [1]; [5]) was 41 ± 1 nM and the IC50 (pneumolysin (Ply) [1]; [3]) was 20 nM. For the same compound, the “Inhibitor class” value (pneumolysin (Ply) [1]; [6]) was “potent (potent inhibitors (IC50 10–30 nM))”, the “Minimum Precipitating Concentration” value (pneumolysin (Ply) [2]) was 6.2 µM and the “Precipitation Relative Power” value (pneumolysin (Ply) [2]) was 130. The “Fold higher precipitating concentration compared to hemolysis IC50” value (“Fold higher precipitating concentration” for short) (pneumolysin (Ply) [2]) was 150 fold.
Work on O=C(O[C@@H]1COC(=O)c2cc(O)c(O)c(O)c2-c2c(cc(O)c(O)c2O)C(=O)O[C@H]1[C@@H]1OC(=O)c2cc(O)c(O)c(O)c2-c2c(O)c(O)c(O)c3c2C(=O)O[C@H]1[C@@H]3O)c1cc(O)c(O)c(O)c1 [Casuarinin] yielded an IC50 (pneumolysin (Ply) [1]; [3]) of 90 nM.
O=C(O[C@H]1[C@@H]2OC(=O)c3cc(O)c(O)c(O)c3-c3c4cc(c(O)c3O)Oc3c(cc(O)c(O)c3O)C(=O)O[C@H]3C(O)O[C@@H]5COC(=O)c6cc(O)c(O)c(O)c6-c6c(cc(c(O)c6O)Oc6c(cc(O)c(O)c6O)C(=O)O[C@H]1C(O)O[C@@H]2COC4=O)C(=O)O[C@H]5[C@@H]3OC(=O)c1cc(O)c(O)c(O)c1)c1cc(O)c(O)c(O)c1 (stereo partly shown) [Oenothein B] was tested, and the “Hemolysis Inhibition Inhibitory Power” value (pneumolysin (Ply) [1]) was 4.4, the IC50 (pneumolysin (Ply) [1]; [5]) was 55 ± 2.1 nM and the IC50 (pneumolysin (Ply) [1]; [3]) was 60 nM. The “Inhibitor class” value (pneumolysin (Ply) [1]; [6]) was “moderate (moderate inhibitors (IC50 40–90 nM))”, the “Minimum Precipitating Concentration” value (pneumolysin (Ply) [2]) was 510 µM and the “Precipitation Relative Power” value (pneumolysin (Ply) [2]) was 1.6. For the same compound, the “Fold higher precipitating concentration” value (pneumolysin (Ply) [2]) was 9300 fold.
With O=C1OC[C@H]2OC(O)[C@@H]3OC(=O)c4cc(O)c(O)c(O)c4-c4c(cc(O)c(O)c4O)C(=O)O[C@H]3[C@@H]2OC(=O)c2cc(O)c(O)c(O)c2-c2c1cc(O)c(O)c2O (stereo partly shown) [Pedunculagin] the IC50 (pneumolysin (Ply) [1]; [3]) was over 100 nM.
Compound O=C(O[C@@H]1O[C@@H]2COC(=O)c3cc(O)c(O)c(O)c3-c3c(cc(O)c(O)c3O)C(=O)O[C@H]2[C@@H]2OC(=O)c3cc(O)c(O)c(O)c3-c3c(cc(O)c(O)c3O)C(=O)O[C@@H]12)c1cc(O)c(O)c(O)c1 [Casuarictin] has an IC50 (pneumolysin (Ply) [1]; [3]) of 40 nM.
Compound O=C(OC1OC2COC(=O)c3cc(O)c(O)c(O)c3-c3c(cc(O)c(O)c3O)C(=O)OC2C2OC(=O)c3cc(O)c(O)c(O)c3-c3c(cc(O)c(O)c3O)C(=O)OC12)c1cc(O)c(O)c(Oc2c(C(=O)OC3OC4COC(=O)c5cc(O)c(O)c(O)c5-c5c(cc(O)c(O)c5O)C(=O)OC4C4OC(=O)c5cc(O)c(O)c(O)c5-c5c(cc(O)c(O)c5O)C(=O)OC34)cc(O)c(O)c2O)c1 (stereo not shown) [Agrimoniin] has an IC50 (pneumolysin (Ply) [1]; [4]) of 30 nM.
Compound O=C1O[C@H]2[C@@H]3OC(=O)c4cc(O)c(O)c(O)c4-c4c(O)c(O)c5oc(=O)c6c(c(O)c(O)c7oc(=O)c4c5c76)-c4c(cc(O)c(O)c4O)C(=O)OC[C@H]3OC(O)[C@@H]2OC(=O)c2cc(O)c(O)c(O)c2-c2c1cc(O)c(O)c2O (mixture of isomers) [Punicalagin] has an IC50 (pneumolysin (Ply) [1]; [3]) of 60 nM.
For O=C1OCC2OC(=O)c3cc(O)c(O)c(O)c3-c3c(O)c(O)c(O)c4c3C(=O)OC(C2OC(=O)c2cc(O)c(O)c(O)c2-c2c1cc(O)c(O)c2O)C1OC(=O)c2c-4c(O)c(O)c(O)c2C1O (stereo not shown) [Vescalagin], the IC50 (pneumolysin (Ply) [1]; [5]) was 240 ± 5.3 nM, the IC50 (pneumolysin (Ply) [1]; [3]) was over 100 nM and the “Inhibitor class” value (pneumolysin (Ply) [1]; [6]) was “weak (negative or weak inhibitors (IC50 ≥ 100 nM))”. For the same compound, the “Hemolysis Inhibition Inhibitory Power” value (pneumolysin (Ply) [1]; relative to IC50 of vescalagin (=1)) was 1, the “Minimum Precipitating Concentration” value (pneumolysin (Ply) [2]) was 820 µM and the “Precipitation Relative Power” value (pneumolysin (Ply) [2]) was 1. For the same compound, the “Fold higher precipitating concentration” value (pneumolysin (Ply) [2]) was 3400 fold.
O=C(OC1COC(=O)c2cc(O)c(O)c(O)c2-c2c(cc(O)c(O)c2O)C(=O)OC1C1OC(=O)c2cc(O)c(O)c(O)c2-c2c(O)c(O)c(O)c3c2C(=O)OC1C3O)c1cc(O)c(O)c(O)c1 (stereo not shown) [Stachyurin] was tested, and the IC50 (pneumolysin (Ply) [1]; [3]) was over 100 nM.
O=C(OC1OC2COC(=O)c3cc(O)c(O)c(O)c3-c3c(cc(O)c(O)c3O)C(=O)OC2C2OC(=O)c3cc(O)c(O)c(O)c3-c3c(cc(O)c(O)c3O)C(=O)OC12)c1cc(O)c(O)c(Oc2c(O)c(O)c(O)c3c2C(=O)OC2C(COC(=O)c4cc(O)c(O)c(O)c4-3)OC(OC(=O)c3cc(O)c(O)c(Oc4c(O)c(O)c(O)c5c4C(=O)OC4C(COC(=O)c6cc(O)c(O)c(O)c6-5)OC(OC(=O)c5cc(O)c(O)c(O)c5)C5OC(=O)c6cc(O)c(O)c(O)c6-c6c(cc(O)c(O)c6O)C(=O)OC45)c3)C3OC(=O)c4cc(O)c(O)c(O)c4-c4c(cc(O)c(O)c4O)C(=O)OC23)c1 (stereo not shown) [Lambertianin C] gave an IC50 (pneumolysin (Ply) [1]; [4]) of 20 nM.
